“Also recorded” adds a separate entry of the source.
Tests used:
glutaredoxin = target: T1, glutaredoxin (Homo sapiens, UniProt P35754); assay: Glutaredoxin assay in the presence of reduced glutathione and glutathione reductase; assay type: biochemical
T1 sequence (P35754 1-106): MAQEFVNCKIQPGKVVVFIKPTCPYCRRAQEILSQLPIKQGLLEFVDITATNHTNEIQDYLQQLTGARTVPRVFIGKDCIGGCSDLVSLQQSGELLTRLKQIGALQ
Text: In addition to the absence of interference with anti-cancer activity, results from in vivo studies have shown that Tavocept™ may elicit the restoration of apoptotic sensitivity in tumor cells through thioredoxin- and glutaredoxin-mediated mechanisms and this may be an important element of its effectiveness as a chemotherapeutic agent.

thioredoxin (TRX) = target: T2, thioredoxin (TRX) (Homo sapiens, UniProt P10599); assay: NADPH oxidation at 340 nm by TRR in the presence of TRX; assay type: biochemical
T2 sequence (P10599 1-105): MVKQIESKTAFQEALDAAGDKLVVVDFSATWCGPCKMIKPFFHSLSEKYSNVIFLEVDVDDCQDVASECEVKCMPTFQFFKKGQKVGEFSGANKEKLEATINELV
Experimental: (§1) The activity of TRR and TRX was determined by following NADPH oxidation at 340 nm according to the previously reported method. See, Luthman, M., and Holmgren, A. Rat liver thioredoxin and thioredoxin reductase: purification and characterization. Biochemistry 21:6628-6633 (1982). A typical assay mixture contained TR buffer (50 mM potassium phosphate, pH 7.0, 1 mM EDTA), 200 μM NADPH, 1.6 μg bovine TRR, and one or more of the following: 4.8 μM TRX, 86 μM insulin, and one of the disulfides described herein. All disulfides were added to reactions as 10× solutions in TR buffer. The total volume of each reaction was 0.1 mL. Reactions were initiated by the addition of TRR and were incubated at 25° C. for 40 min. The activity was calculated using a 4 min. linear portion of each reaction. Enzyme assays were carried out using either a Molecular Devices SpectraMaxPlus UV plate reader or a Varian Cary 100 UV-visible Spectrophotometer.
(§2) Data was then collected and plotted in Microsoft Excel. Error calculations, and graphical representations were performed in Microsoft Excel and Kaleidograph (ver. 3.5). Nonlinear data was graphically rendered using Kaleidograph. ANOVA and other statistical analyses were performed using SAS (ver. 8.2). Unless otherwise noted, significance level was set at 0.05, and error bars represent actual experimental standard deviation.

[1] = target: T3, glutathione-S-transferase (GST), m1-1 isotype (Homo sapiens, UniProt P09488); assay: GST assay: conjugation of reduced glutathione to CDNB, absorbance at 340 nm; assay type: biochemical; conditions: difference of relative activity from 100%
T3 construct: purchased
T3 sequence (P09488 1-218): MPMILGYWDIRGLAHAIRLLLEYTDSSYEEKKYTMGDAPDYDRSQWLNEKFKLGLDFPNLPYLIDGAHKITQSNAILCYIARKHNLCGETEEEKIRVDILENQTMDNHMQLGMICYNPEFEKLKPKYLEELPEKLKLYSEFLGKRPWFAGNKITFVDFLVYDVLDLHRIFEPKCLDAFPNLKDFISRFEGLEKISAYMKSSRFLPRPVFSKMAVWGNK
Text: The following experiments were designed to determine if Tavocept™ has an inhibitory or stimulatory effect on GST. […] An in vitro assay for GST has been developed and reported. See, Meyer, D. J. and Ketterer, B., Purification of soluble human glutathione S-transferases. Methods Enzymol. 252:53-65 (1995). This assay monitors the conjugation of reduced glutathione to 1-chloro-2,4-dinitrobenzene (CDNB), as illustrated in Reaction Scheme II, below.
Reduced thiol forms a conjugate with CDNB (extinction coefficient=9600 M^−1 cm^−1), which is detected at 340 nm. Stock solutions of GSH, CDNB, Tavocept™ were prepared by dissolving the reagent in sterile water at the concentrations listed below prior to use. […] Slopes were measured in the linear range of the assay (i.e., typically between 5 to 10 min.). In assays where the effect of Tavocept™ on GST activity was measured, 20 μL of either a 500 mM, 166.7 mM, or 55.6 mM stock solution of Tavocept™ was added to standard reactions using 1 mM GSH as the enzyme substrate. […]
Raw data was obtained on a Cary 100 spectrophotometer. […] No absorbance values were collected during the process of enzyme addition. […] It was during this time that reaction rates (i.e., slopes of change in absorbance with time) were measured using the Cary 100 software. […]

[2] = target: T4, thioredoxin reductase (TRR) (Bos taurus, UniProt O62768); assay: NADPH oxidation at 340 nm by TRR in the absence of TRX; assay type: biochemical, bovine
T4 sequence (O62768 1-499): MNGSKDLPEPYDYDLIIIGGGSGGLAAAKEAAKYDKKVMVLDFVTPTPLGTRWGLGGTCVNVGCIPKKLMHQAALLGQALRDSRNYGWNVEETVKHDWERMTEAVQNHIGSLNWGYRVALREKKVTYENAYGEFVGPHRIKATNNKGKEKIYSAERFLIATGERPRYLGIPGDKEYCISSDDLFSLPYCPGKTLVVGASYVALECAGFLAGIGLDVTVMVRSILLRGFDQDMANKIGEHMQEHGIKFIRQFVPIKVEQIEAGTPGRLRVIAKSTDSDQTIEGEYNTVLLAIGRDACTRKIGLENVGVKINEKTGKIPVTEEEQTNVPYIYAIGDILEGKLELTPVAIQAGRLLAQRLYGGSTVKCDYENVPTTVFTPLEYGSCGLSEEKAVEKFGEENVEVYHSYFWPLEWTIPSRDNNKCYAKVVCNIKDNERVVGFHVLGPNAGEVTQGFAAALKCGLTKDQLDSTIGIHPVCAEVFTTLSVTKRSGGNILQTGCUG
Experimental: as §1, §2

[3] = based on magnitude and concentration-dependence of oxidation responses

O=S(=O)([O-])CCSSCCS(=O)(=O)[O-].[Na+].[Na+] [Tavocept™, disodium 2,2′-dithio-bis-ethane sulfonate]
activity with glutaredoxin (glutaredoxin): substrate-like activity
NADPH oxidation by TRR in the presence of TRX (thioredoxin (TRX); 4.8 μM TRX, 200 μM NADPH, 25° C.): concentration-dependent increase
substrate for TRX (thioredoxin (TRX); [3]): most likely a substrate for TRX; also recorded: substrate for thioredoxin
Percent Inhibition ([1]; 1.1 mM Tavocept): 5.6%
Percent Inhibition ([1]; 3.3 mM Tavocept): 39%
substrate for TRR [2, 3]: not for TRR
NADPH oxidation by TRR in the absence of TRX ([2]; no TRX, 200 μM NADPH, 25° C.): indistinguishable from background
